From US12098144B2, “Piperazine indazole glucocorticoid receptor antagonists” (Corcept Therapeutics Incorporated, priority 2021, dated 2024) come the findings set out here.

pKi: −log10 of the molar value.

This test has as its target T1, glucocorticoid receptor (Homo sapiens, UniProt P04150).
T1 construct: endogenous in cells; ATCC cat
T1 sequence (P04150 1-777): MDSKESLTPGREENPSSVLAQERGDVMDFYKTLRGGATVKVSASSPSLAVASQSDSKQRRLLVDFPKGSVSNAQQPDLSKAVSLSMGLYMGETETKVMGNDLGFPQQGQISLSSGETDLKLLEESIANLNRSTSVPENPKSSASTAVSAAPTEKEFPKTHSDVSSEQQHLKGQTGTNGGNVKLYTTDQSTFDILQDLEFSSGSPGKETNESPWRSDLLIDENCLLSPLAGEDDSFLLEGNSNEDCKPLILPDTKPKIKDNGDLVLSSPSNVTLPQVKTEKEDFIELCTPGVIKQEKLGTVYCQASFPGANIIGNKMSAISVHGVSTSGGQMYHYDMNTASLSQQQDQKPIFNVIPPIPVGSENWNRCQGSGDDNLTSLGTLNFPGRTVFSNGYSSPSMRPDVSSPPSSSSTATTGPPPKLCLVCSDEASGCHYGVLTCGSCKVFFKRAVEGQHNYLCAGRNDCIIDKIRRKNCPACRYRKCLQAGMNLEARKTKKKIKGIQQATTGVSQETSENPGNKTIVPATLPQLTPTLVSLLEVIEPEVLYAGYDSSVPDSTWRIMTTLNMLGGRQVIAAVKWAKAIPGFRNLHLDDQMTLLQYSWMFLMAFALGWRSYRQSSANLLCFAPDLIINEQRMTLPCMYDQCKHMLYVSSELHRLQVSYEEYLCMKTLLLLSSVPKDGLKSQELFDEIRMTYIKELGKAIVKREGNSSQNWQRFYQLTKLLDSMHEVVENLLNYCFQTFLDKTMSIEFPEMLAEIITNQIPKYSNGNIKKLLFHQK
The experiment in a line: Hep G2 TAT Ki: inhibition of dexamethasone-induced TAT in HepG2 cells (96 well). Conditions: challenge of 100 nM dexamethasone, IC50 converted to Ki by Cheng and Prusoff equation. The class given is cell-based. The method, boiled down:
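Cells lysed 15 min at 4 °C; TAT enzyme reaction 2 h at 37 °C, stopped with KOH, 30 min further at 37 °C. Inhibition fitted to 4-parameter logistic.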
As usually defined, the pKi is −log10 of the Ki, conventionally taken in molar units. High values mean a small Ki, low ones a large Ki. As to `Cc1cc2c(cnn2-c2ccc(F)cc2)cc1C1CN(S(=O)(=O)c2cnn(C)n2)CCN1CC1CC1` (stereo not shown) [Example 12, 5-(1-(cyclopropylmethyl)-4-((2-methyl-2H-1,2,3-triazol-4-yl)sulfonyl)piperazin-2-yl)-1-(4-fluorophenyl)-6-methyl-1H-indazole], the negative-log Ki (pKi) was 7.17. The result for `Cc1cc2c(cnn2-c2ccc(F)cc2)cc1C1CN(S(=O)(=O)c2cnn(C)n2)CCN1CC1CCOCC1` (stereo not shown) [Example 13, 1-(4-fluorophenyl)-6-methyl-5-(4-((2-methyl-2H-1,2,3-triazol-4-yl)sulfonyl)-1-((tetrahydro-2H-pyran-4-yl)methyl)piperazin-2-yl)-1H-indazole] reads 7.01; that for `Cc1cc2c(cnn2-c2ccc(F)cc2)cc1C1CN(S(=O)(=O)c2cnn(C)n2)CCN1CC1CC1C` (stereo not shown) [Example 14, 1-(4-fluorophenyl)-6-methyl-5-(4-((2-methyl-2H-1,2,3-triazol-4-yl)sulfonyl)-1-((2-methylcyclopropyl)methyl)piperazin-2-yl)-1H-indazole], 7.21; that for `CCN1CCN(S(=O)(=O)c2cnn(C)n2)CC1c1cc2cnn(-c3ccc(F)cc3)c2cc1C` (stereo not shown) [Example 15, 5-(1-ethyl-4-((2-methyl-2H-1,2,3-triazol-4-yl)sulfonyl)piperazin-2-yl)-1-(4-fluorophenyl)-6-methyl-1H-indazole], 6.59. For the molecule `Cc1cc2c(cnn2-c2ccc(F)cc2)cc1C1CN(S(=O)(=O)c2cnn(C)n2)CCN1CC1COC1` (stereo not shown) [Example 16, 1-(4-fluorophenyl)-6-methyl-5-(4-((2-methyl-2H-1,2,3-triazol-4-yl)sulfonyl)-1-(oxetan-3-ylmethyl)piperazin-2-yl)-1H-indazole], the pKi is 6.28.

`CC(C)=CCN1CCN(S(=O)(=O)c2cnn(C)n2)CC1c1cc2cnn(-c3ccc(F)cc3)c2cc1C` (stereo not shown) [Example 17, 1-(4-fluorophenyl)-6-methyl-5-(4-((2-methyl-2H-1,2,3-triazol-4-yl)sulfonyl)-1-(3-methylbut-2-en-1-yl)piperazin-2-yl)-1H-indazole] showed a negative logarithm of the Ki (pKi) of 6.96. For the molecule `Cc1cc2c(cnn2-c2ccc(F)cc2)cc1C1CN(S(=O)(=O)c2cnn(C)n2)CCN1Cc1cccnc1` (stereo not shown) [Example 18, 1-(4-fluorophenyl)-6-methyl-5-(4-((2-methyl-2H-1,2,3-triazol-4-yl)sulfonyl)-1-(pyridin-3-ylmethyl)piperazin-2-yl)-1H-indazole], the negative logarithm of the Ki (pKi) is 6.48.

Molecule `Cc1cc2c(cnn2-c2ccc(F)cc2)cc1C1CN(S(=O)(=O)c2cnn(C)n2)CCN1C(C)C` (stereo not shown) [Example 19, 1-(4-fluorophenyl)-5-(1-isopropyl-4-((2-methyl-2H-1,2,3-triazol-4-yl)sulfonyl)piperazin-2-yl)-6-methyl-1H-indazole] had a negative logarithm of the Ki (pKi) of 6.85. Consider `COc1cc2c(cnn2-c2ccc(F)cc2)cc1C1CN(S(=O)(=O)c2cnn(C)n2)CCN1CC(C)C` (stereo not shown) [Example 22, 1-(4-fluorophenyl)-5-(1-isobutyl-4-((2-methyl-2H-1,2,3-triazol-4-yl)sulfonyl)piperazin-2-yl)-6-methoxy-1H-indazole], for which the pKi is 7.24. Regarding `CC(C)CN1CCN(S(=O)(=O)c2cnn(C)n2)CC1c1cc2cnn(-c3ccc(F)cc3)c2cc1Cl` (stereo not shown) [Example 24, 6-chloro-1-(4-fluorophenyl)-5-(1-isobutyl-4-((2-methyl-2H-1,2,3-triazol-4-yl)sulfonyl)piperazin-2-yl)-1H-indazole], the negative logarithm of the Ki (pKi) was 7.14. In turn, `Cc1cc2c(cnn2-c2ccc(F)cc2)cc1[C@@H]1CN(S(=O)(=O)c2cnn(C)n2)CCN1C[C@@H](C)C(F)(F)F` [Example 32, 1-(4-fluorophenyl)-6-methyl-5-((R)-4-((2-methyl-2H-1,2,3-triazol-4-yl)sulfonyl)-1-((R)-3,3,3-trifluoro-2-methylpropyl)piperazin-2-yl)-1H-indazole] had a pKi of 7.72. With `CC(=O)N1CCN(S(=O)(=O)c2cnn(C)n2)CC1c1cc2cnn(-c3ccc(F)cc3)c2cc1C` (stereo not shown) [Example 34, 1-(2-(1-(4-fluorophenyl)-6-methyl-1H-indazol-5-yl)-4-((2-methyl-2H-1,2,3-triazol-4-yl)sulfonyl)piperazin-1-yl)ethan-1-one], the pKi is 6.37. `Cc1cc2c(cnn2-c2ccc(F)cc2)cc1C1CN(S(=O)(=O)c2cnn(C)n2)CCN1C(=O)C(C)C` (stereo not shown) [Example 35, 1-(2-(1-(4-fluorophenyl)-6-methyl-1H-indazol-5-yl)-4-((2-methyl-2H-1,2,3-triazol-4-yl)sulfonyl)piperazin-1-yl)-2-methylpropan-1-one]: the negative-log Ki (pKi) is 6.11.

Regarding `Cc1cc2c(cnn2-c2ccc(F)cc2)cc1C1CN(S(=O)(=O)c2cnn(C3CCOCC3)c2)CCN1CC(C)C` (stereo not shown) [Example 36, 1-(4-fluorophenyl)-5-(1-isobutyl-4-((1-(tetrahydro-2H-pyran-4-yl)-1H-pyrazol-4-yl)sulfonyl)piperazin-2-yl)-6-methyl-1H-indazole], the pKi is 7.30. Take `Cc1cc2c(cnn2-c2ccc(F)cc2)cc1C1CN(S(=O)(=O)c2cnn(C(C)C)n2)CCN1CC(C)C` (stereo not shown) [Example 37, 1-(4-fluorophenyl)-5-(1-isobutyl-4-((2-isopropyl-2H-1,2,3-triazol-4-yl)sulfonyl)piperazin-2-yl)-6-methyl-1H-indazole]: the pKi was 7.12.

The molecule `CCn1cc(S(=O)(=O)N2CCN(CC(C)C)C(c3cc4cnn(-c5ccc(F)cc5)c4cc3C)C2)cn1` (stereo not shown) [Example 38, 5-(4-((1-ethyl-1H-pyrazol-4-yl)sulfonyl)-1-isobutylpiperazin-2-yl)-1-(4-fluorophenyl)-6-methyl-1H-indazole] showed a negative-log Ki (pKi) of 7.34. `Cc1cc2c(cnn2-c2ccc(F)cc2)cc1C1CN(S(C)(=O)=O)CCN1CC(C)C` (stereo not shown) [Example 39, 1-(4-fluorophenyl)-5-(1-isobutyl-4-(methylsulfonyl)piperazin-2-yl)-6-methyl-1H-indazole] gave a pKi of 7.24. The result for `CCn1ncc(S(=O)(=O)N2CCN(CC(C)C)C(c3cc4cnn(-c5ccc(F)cc5)c4cc3C)C2)n1` (stereo not shown) [Example 40, 5-(4-((2-ethyl-2H-1,2,3-triazol-4-yl)sulfonyl)-1-isobutylpiperazin-2-yl)-1-(4-fluorophenyl)-6-methyl-1H-indazole] reads 7.28; that for `CCCn1ncc(S(=O)(=O)N2CCN(CC(C)C)C(c3cc4cnn(-c5ccc(F)cc5)c4cc3C)C2)n1` (stereo not shown) [Example 41, 1-(4-fluorophenyl)-5-(1-isobutyl-4-((2-propyl-2H-1,2,3-triazol-4-yl)sulfonyl)piperazin-2-yl)-6-methyl-1H-indazole], 7.22.

`Cc1cc2c(cnn2-c2ccc(F)cc2)cc1C1CN(S(=O)(=O)c2ccn(C)n2)CCN1CC(C)C` (stereo not shown) [Example 42, 1-(4-fluorophenyl)-5-(1-isobutyl-4-((1-methyl-1H-pyrazol-3-yl)sulfonyl)piperazin-2-yl)-6-methyl-1H-indazole] showed a negative-log Ki (pKi) of 7.40. `Cc1cc2c(cnn2-c2ccc(F)cc2)cc1C1CN(S(=O)(=O)c2cncc(F)c2)CCN1CC(C)C` (stereo not shown) [Example 43, 1-(4-fluorophenyl)-5-(4-((5-fluoropyridin-3-yl)sulfonyl)-1-isobutylpiperazin-2-yl)-6-methyl-1H-indazole] gave a negative-log Ki (pKi) of 7.12.

`Cc1cc2c(cnn2-c2ccc(F)cc2)cc1C1CN(S(=O)(=O)C2CCOCC2)CCN1CC(C)C` (stereo not shown) [Example 44, 1-(4-fluorophenyl)-5-(1-isobutyl-4-((tetrahydro-2H-pyran-4-yl)sulfonyl)piperazin-2-yl)-6-methyl-1H-indazole] had a pKi of 7.03.
